In article PMC11167047 (Cell Death Discovery, 2024):

Legend:
Assay in all cases: kinome screen (33PanQinase)
Type in all cases: biochemical
CAMK2D = biological target: T1, CAMK2D (Homo sapiens, UniProt Q13557)
T1 construct: purchased Reaction Biology Europe GmbH (formerly ProQinase)
Experimental: (§1) The Kinome Screening was performed by Reaction Biology Europe GmbH (http://reactionbiology.com; Freiburg i. Br., Germany).

CDK1/CycA2 = biological target: T2, CDK1/CycA2 (Homo sapiens, UniProt P06493)
T2 construct: purchased Reaction Biology Europe GmbH (formerly ProQinase)
Experimental: as §1

CDK5/p35NCK = biological target: T3, CDK5/p35NCK (Homo sapiens, UniProt Q00535)
T3 construct: purchased Reaction Biology Europe GmbH (formerly ProQinase)
Experimental: as §1

CLK4 = biological target: T4, CLK4 (Homo sapiens, UniProt Q9HAZ1)
T4 construct: purchased Reaction Biology Europe GmbH (formerly ProQinase)
Experimental: as §1

EPHA6 = biological target: T5, EPHA6 (Homo sapiens, UniProt Q9UF33)
T5 construct: purchased Reaction Biology Europe GmbH (formerly ProQinase)
T5 sequence (Q9UF33 23-1036): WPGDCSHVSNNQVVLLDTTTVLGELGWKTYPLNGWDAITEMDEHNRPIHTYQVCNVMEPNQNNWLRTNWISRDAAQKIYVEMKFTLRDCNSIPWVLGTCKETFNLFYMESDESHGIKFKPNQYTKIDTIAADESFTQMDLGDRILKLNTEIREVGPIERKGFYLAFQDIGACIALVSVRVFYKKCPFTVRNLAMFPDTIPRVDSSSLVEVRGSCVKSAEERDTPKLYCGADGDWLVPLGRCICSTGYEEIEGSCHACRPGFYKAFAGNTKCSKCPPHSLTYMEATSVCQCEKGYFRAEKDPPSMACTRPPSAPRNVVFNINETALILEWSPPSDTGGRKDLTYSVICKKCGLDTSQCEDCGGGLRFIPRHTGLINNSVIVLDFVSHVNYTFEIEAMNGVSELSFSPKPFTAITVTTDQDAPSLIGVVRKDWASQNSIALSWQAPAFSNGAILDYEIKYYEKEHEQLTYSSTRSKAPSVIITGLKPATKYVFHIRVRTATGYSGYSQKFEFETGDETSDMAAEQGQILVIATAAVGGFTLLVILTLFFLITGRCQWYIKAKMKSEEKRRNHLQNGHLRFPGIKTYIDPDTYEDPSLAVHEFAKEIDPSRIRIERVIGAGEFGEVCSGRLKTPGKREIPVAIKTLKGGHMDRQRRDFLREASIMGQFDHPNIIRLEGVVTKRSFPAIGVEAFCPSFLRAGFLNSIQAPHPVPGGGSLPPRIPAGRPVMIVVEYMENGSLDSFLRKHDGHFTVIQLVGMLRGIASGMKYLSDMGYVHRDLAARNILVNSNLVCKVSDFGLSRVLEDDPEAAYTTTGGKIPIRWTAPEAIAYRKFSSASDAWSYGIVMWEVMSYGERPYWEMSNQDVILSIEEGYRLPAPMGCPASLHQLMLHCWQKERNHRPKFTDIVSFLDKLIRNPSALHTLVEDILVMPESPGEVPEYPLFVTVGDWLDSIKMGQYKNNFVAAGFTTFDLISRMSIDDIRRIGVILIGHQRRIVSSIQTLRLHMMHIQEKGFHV
Experimental: as §1

JAK3 = biological target: T6, JAK3 (Homo sapiens, UniProt P52333)
T6 construct: purchased Reaction Biology Europe GmbH (formerly ProQinase)
T6 sequence (P52333 1-1124): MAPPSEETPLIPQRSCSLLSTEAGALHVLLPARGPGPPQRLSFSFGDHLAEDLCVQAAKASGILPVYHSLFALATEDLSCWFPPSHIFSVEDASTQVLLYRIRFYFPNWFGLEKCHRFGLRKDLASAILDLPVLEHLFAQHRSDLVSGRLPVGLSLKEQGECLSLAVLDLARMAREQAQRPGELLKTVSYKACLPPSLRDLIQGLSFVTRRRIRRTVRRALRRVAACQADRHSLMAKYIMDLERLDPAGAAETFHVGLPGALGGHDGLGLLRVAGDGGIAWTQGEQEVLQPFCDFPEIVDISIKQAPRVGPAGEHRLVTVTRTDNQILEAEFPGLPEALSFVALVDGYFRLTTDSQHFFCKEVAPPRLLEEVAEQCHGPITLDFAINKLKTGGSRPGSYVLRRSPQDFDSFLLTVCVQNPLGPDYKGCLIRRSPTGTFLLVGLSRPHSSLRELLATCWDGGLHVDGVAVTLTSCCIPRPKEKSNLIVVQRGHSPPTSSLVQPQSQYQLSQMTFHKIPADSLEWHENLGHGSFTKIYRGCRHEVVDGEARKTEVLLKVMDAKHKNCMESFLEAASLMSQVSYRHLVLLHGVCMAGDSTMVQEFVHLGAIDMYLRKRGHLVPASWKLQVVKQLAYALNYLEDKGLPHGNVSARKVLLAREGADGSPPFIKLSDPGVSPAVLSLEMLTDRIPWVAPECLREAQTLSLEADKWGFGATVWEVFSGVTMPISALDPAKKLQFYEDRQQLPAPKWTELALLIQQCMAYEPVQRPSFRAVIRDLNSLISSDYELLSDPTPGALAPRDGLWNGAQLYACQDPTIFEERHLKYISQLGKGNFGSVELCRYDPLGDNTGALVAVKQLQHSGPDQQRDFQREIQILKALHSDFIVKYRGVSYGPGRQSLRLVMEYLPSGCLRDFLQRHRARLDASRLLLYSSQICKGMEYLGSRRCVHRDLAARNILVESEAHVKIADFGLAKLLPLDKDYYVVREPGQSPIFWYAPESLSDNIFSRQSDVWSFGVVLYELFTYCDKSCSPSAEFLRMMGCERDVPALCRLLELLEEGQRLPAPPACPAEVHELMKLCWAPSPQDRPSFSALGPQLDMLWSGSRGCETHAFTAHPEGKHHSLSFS
Experimental: as §1

LYN = biological target: T7, LYN (Homo sapiens, UniProt P07948)
T7 construct: purchased Reaction Biology Europe GmbH (formerly ProQinase)
Experimental: as §1

MST3 = biological target: T8, MST3 (Homo sapiens, UniProt Q9Y6E0)
T8 construct: purchased Reaction Biology Europe GmbH (formerly ProQinase)
Experimental: as §1

PKCβ1 = biological target: T9, PKCβ1 (Homo sapiens, UniProt P05771)
T9 construct: purchased Reaction Biology Europe GmbH (formerly ProQinase)
Experimental: as §1

S6Kbeta = biological target: T10, S6Kbeta (Homo sapiens, UniProt Q9UBS0)
T10 construct: purchased Reaction Biology Europe GmbH (formerly ProQinase)
Experimental: as §1

T8 sequence (Q9Y6E0 whole entry): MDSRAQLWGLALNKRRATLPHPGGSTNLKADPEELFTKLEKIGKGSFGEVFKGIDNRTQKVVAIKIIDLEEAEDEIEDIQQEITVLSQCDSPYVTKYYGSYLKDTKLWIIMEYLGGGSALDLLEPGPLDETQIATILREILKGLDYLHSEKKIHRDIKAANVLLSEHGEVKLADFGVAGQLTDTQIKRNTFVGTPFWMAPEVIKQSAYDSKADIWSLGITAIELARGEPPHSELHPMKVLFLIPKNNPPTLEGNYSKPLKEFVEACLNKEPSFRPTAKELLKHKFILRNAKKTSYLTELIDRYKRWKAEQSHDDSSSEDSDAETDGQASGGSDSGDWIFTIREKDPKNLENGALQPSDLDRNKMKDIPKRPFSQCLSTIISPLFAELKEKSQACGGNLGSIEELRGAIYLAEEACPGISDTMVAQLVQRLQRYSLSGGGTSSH
T4 sequence (Q9HAZ1 whole entry): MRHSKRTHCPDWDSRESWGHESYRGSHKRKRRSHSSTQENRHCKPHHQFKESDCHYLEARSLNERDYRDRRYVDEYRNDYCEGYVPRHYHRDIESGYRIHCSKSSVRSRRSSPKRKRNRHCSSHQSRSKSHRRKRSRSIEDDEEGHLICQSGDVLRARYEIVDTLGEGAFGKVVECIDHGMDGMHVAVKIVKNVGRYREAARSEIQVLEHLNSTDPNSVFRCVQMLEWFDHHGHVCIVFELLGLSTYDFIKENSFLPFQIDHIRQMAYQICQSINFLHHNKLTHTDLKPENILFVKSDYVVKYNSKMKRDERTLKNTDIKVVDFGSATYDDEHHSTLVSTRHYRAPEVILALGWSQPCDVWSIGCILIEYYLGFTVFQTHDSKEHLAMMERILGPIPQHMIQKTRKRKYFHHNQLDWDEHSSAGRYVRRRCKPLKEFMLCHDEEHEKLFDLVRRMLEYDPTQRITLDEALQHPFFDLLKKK
T2 sequence (P06493 whole entry): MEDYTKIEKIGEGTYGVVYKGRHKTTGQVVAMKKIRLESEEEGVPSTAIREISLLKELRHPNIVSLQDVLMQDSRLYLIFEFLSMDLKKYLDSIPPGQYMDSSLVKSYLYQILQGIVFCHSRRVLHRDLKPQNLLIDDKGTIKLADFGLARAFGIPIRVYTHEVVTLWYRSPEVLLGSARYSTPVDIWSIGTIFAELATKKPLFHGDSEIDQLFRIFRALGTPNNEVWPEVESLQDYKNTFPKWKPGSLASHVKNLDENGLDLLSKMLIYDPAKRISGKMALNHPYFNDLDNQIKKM
T2 sequence (P20248 whole entry partner): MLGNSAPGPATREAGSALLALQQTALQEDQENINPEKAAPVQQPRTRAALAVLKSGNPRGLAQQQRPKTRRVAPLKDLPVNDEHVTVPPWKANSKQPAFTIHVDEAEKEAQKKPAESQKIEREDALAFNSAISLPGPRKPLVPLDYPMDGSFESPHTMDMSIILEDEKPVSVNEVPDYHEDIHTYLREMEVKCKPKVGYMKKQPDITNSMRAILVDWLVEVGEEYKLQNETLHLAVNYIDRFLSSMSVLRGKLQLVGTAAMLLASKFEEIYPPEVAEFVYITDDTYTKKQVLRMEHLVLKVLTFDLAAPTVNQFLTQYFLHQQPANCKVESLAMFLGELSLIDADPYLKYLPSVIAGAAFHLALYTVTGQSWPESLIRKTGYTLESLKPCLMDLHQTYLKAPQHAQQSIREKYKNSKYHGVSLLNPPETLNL
T7 sequence (P07948 whole entry): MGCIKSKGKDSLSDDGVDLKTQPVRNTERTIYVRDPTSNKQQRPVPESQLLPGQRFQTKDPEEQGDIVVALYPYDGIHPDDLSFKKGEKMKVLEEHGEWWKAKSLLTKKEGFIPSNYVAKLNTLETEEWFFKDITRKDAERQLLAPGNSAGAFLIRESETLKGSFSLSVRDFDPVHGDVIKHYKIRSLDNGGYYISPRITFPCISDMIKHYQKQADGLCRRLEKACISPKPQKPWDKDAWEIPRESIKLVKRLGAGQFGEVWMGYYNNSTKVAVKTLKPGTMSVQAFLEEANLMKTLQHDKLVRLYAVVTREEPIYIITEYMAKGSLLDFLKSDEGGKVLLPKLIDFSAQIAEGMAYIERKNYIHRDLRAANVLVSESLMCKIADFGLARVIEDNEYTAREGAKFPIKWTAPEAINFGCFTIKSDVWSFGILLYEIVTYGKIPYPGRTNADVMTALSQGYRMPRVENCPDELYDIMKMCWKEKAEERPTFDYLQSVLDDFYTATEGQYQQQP
T10 sequence (Q9UBS0 whole entry): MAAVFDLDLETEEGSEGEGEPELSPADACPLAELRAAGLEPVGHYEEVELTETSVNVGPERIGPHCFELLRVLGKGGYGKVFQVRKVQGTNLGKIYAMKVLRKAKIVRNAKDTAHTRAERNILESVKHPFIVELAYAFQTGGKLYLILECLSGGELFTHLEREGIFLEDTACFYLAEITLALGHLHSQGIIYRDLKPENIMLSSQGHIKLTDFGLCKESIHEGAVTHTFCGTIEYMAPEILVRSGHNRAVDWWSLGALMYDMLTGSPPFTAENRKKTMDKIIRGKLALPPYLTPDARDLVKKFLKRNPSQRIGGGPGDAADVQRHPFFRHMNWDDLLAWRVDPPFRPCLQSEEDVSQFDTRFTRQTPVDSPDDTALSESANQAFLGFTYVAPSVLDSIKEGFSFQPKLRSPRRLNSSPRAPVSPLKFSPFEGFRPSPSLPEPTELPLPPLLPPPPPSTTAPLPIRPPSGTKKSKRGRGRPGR
T9 sequence (P05771 whole entry): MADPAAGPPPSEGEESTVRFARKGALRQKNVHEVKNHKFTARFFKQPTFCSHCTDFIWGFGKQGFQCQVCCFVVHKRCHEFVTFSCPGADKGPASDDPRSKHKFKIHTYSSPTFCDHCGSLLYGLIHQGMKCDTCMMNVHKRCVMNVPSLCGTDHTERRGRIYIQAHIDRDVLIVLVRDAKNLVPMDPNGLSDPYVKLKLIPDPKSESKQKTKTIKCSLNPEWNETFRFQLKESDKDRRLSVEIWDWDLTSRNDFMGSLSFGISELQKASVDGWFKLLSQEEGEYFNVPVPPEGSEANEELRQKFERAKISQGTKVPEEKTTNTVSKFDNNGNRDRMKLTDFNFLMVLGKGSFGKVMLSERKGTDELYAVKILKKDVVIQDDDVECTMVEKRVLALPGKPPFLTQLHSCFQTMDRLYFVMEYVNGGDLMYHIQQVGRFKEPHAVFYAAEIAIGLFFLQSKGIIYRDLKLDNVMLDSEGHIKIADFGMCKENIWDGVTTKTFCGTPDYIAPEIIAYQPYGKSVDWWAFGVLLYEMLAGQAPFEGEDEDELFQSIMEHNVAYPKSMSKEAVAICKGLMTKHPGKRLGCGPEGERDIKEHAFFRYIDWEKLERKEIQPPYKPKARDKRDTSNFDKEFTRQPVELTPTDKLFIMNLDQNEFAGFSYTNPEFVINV
T3 sequence (Q00535 whole entry): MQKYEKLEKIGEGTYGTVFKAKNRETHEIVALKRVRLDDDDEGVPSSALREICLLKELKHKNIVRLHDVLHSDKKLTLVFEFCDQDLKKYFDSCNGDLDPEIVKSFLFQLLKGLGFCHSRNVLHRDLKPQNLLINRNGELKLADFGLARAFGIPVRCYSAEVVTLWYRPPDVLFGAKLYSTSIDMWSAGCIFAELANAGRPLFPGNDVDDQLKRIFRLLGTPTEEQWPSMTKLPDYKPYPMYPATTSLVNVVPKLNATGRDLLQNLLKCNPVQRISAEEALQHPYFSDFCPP
T3 sequence (Q15078 whole entry partner): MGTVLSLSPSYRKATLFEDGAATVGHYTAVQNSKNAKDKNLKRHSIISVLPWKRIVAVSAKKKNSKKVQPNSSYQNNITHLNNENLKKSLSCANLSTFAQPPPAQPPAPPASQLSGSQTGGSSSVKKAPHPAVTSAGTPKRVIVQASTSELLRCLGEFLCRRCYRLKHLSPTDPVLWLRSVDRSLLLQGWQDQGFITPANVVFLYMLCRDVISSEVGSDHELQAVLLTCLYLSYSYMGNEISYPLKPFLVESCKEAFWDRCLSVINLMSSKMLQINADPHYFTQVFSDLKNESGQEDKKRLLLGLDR
T1 sequence (Q13557 whole entry): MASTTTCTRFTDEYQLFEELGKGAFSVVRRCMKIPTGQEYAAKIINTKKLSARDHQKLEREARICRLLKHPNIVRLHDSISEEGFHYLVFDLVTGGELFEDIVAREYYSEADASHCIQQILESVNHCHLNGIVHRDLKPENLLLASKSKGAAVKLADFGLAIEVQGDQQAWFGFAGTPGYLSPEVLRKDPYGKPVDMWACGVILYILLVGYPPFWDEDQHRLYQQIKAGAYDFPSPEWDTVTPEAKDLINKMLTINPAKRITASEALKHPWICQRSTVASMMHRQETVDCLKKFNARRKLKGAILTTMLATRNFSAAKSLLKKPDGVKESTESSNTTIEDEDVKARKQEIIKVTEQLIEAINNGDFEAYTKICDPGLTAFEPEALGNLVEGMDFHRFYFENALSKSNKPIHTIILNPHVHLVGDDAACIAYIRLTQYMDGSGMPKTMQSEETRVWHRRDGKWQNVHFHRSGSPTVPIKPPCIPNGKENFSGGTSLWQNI

SMILES | residual kinase activity (CAMK2D; 0.3 µM) | residual kinase activity (CDK1/CycA2; 0.3 µM) | residual kinase activity (CDK5/p35NCK; 0.3 µM) | residual kinase activity (CLK4; 0.3 µM) | residual kinase activity (EPHA6; 0.3 µM) | residual kinase activity (JAK3; 0.3 µM) | residual kinase activity (LYN; 0.3 µM) | residual kinase activity (MST3; 0.3 µM) | residual kinase activity (PKCβ1; 0.3 µM) | residual kinase activity (S6Kbeta; 0.3 µM) | other results
COc1ccnc2[nH]cc(-c3cc(N)nc(N)c3)c12 [meriolin 16] | 64 % of control | 5 % of control | 1 % of control | 0 % of control | 105 % of control | 15 % of control | 81 % of control | 91 % of control | 50 % of control | 103 % of control | residual kinase activity (CAMK2D; 0.03 µM): 99 % of control; residual kinase activity (CDK1/CycA2; 0.03 µM): 32 % of control; residual kinase activity (CDK5/p35NCK; 0.03 µM): 7 % of control; residual kinase activity (CLK4; 0.03 µM): 3 % of control; residual kinase activity (EPHA6; 0.03 µM): 98 % of control; residual kinase activity (JAK3; 0.03 µM): 58 % of control; residual kinase activity (LYN; 0.03 µM): 105 % of control; residual kinase activity (MST3; 0.03 µM): 101 % of control; residual kinase activity (PKCβ1; 0.03 µM): 103 % of control; residual kinase activity (S6Kbeta; 0.03 µM): 89 % of control
c1ccc(CNc2cc(-c3c[nH]c4ncccc34)ccn2)cc1 [meriolin 36] | 16 % of control | 2 % of control | 0 % of control | 1 % of control | 101 % of control | 5 % of control | 73 % of control | 71 % of control | 53 % of control | 87 % of control | residual kinase activity (CAMK2D; 3 µM): 1 % of control; residual kinase activity (CDK1/CycA2; 3 µM): 1 % of control; residual kinase activity (CDK5/p35NCK; 3 µM): 0 % of control; residual kinase activity (CLK4; 3 µM): 1 % of control; residual kinase activity (EPHA6; 3 µM): 65 % of control; residual kinase activity (JAK3; 3 µM): -1 % of control; residual kinase activity (LYN; 3 µM): 25 % of control; residual kinase activity (MST3; 3 µM): 32 % of control; residual kinase activity (PKCβ1; 3 µM): 9 % of control; residual kinase activity (S6Kbeta; 3 µM): 67 % of control
